Laboratory results published in US20080318884A1, “Methods for Altering Gene Expression and Methods of Treatment Utilizing Same” (THE UAB RESEARCH FOUNDATION, priority 2005, published 2008).

Experiments:
[1] = tested on: wild type Hdh mRNA; assay: QSI treatment of control ES cells expressing a single wild type Hdh allele, Hdh mRNA by quantitative real time PCR; type: cell-based, mouse; conditions: QSI for six hours, high glutamine, FIG. 2C
Method: (§1) ES cell lines hemizygous for HdhQ150 were treated with an inhibitor of the glutaminyl-tRNA synthetase, QSI (5′-O-[N-(L-glutaminyl)sulfamoyl]adenosine) for six hours in the presence of high levels of glutamine. […] In this case the long CAG repeat is used to represent a rare cluster of codons. This diminishment in disease allele expression was accomplished in the presence of high amounts of glutamine (1.2 grams/ml) showing that reduction of expression can be attained by inhibition of a tRNA synthetase while providing normal amounts of the amino acid which is a substrate for the synthetase reaction. […]
(§2) Since the quantitative real time PCR (QRTPCR) assay (described below) cannot distinguish between different alleles of Hdh it is necessary that the ES cells only express a single allele. […] These engineered ES cells express only the long repeat version of Hdh and lack wild type Hdh mRNA as determined by RT-PCR across the repeat region.
(§3) Finally, a quantitative real time PCR (QRTPCR) assays has been developed for both Hprt and Hdh mRNA. […] During the PCR reaction the polymerase destroys the oligo releasing the […] to allow fluorescence. Fluorescence is measured though every cycle and the point when it increases beyond threshold is logarithmically related to the amount of starting RNA. […]

[2] = tested on: HdhQ150 mRNA; assay: QSI treatment of ES cells hemizygous for HdhQ150, Hdh mRNA by quantitative real time PCR; type: cell-based, mouse; conditions: ES cells hemizygous for HdhQ150, QSI for six hours, high glutamine (1.2 grams/ml), FIG. 2C
Method: as §1, §2, §3

## NC(=O)CC[C@H](N)C(=O)NS(=O)(=O)OC[C@H]1O[C@@H](n2cnc3c(N)ncnc32)[C@H](O)[C@@H]1O [QSI, 5′-O-[N-(L-glutaminyl)sulfamoyl]adenosine]
[1]
  wild type Hdh mRNA levels: effect of QSI in lowering Hdh mRNA levels was dependent on the presence of the long CAG repeat
[2]
  HdhQ150 mRNA levels: lowered by QSI treatment in a dose dependent manner
